Where “and” joins values, the source holds several entries; their conditions need not be identical. Equal entries are not always repeated. Each block holds one compound with its values, some of them ahead of it.
Tested on: 168753-222-R-J1-PDC complex spheroid viability
Experiment: Anticancer human tumor 168753-222-R-J1-PDC patient-derived bladder carcinoma cell line growth inhibition [CLK]
Settings: for viability, T/C: stronger effect = lower value
Summary of the method: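 Multi-cell-type spheroids combined patient-derived tumor cells with HUVEC endothelial cells and human mesenchymal stem cells. Paired agents were dosed in half-log steps down from about clinical Cmax, or from 10 microM where Cmax was unknown.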

[1] = curve of first compound, second compound 0.0316 µM
[2] = curve of first compound, second compound 0.1 µM
[3] = curve of first compound, second compound 0.316 µM
[4] = curve of first compound, second compound 1 µM
[5] = curve of first compound, second compound 3.16 µM
[6] = curve of first compound, second compound 10 µM
[7] = second compound 0.0316 µM, first compound 0.0316 µM
[8] = second compound 0.0316 µM, first compound 0.1 µM
[9] = second compound 0.0316 µM, first compound 0.316 µM
[10] = second compound 0.0316 µM, first compound 1 µM
[11] = second compound 0.1 µM, first compound 0.0316 µM
[12] = second compound 0.1 µM, first compound 0.1 µM
[13] = second compound 0.1 µM, first compound 0.316 µM
[14] = second compound 0.1 µM, first compound 1 µM
[15] = second compound 0.316 µM, first compound 0.0316 µM
[16] = second compound 0.316 µM, first compound 0.1 µM
[17] = second compound 0.316 µM, first compound 0.316 µM
[18] = second compound 0.316 µM, first compound 1 µM
[19] = second compound 1 µM, first compound 0.0316 µM
[20] = second compound 1 µM, first compound 0.1 µM
[21] = second compound 1 µM, first compound 0.316 µM
[22] = second compound 1 µM, first compound 1 µM
[23] = second compound 3.16 µM, first compound 0.0316 µM
[24] = second compound 3.16 µM, first compound 0.1 µM
[25] = second compound 3.16 µM, first compound 0.316 µM
[26] = second compound 3.16 µM, first compound 1 µM
[27] = second compound 10 µM, first compound 0.0316 µM
[28] = second compound 10 µM, first compound 0.1 µM
[29] = second compound 10 µM, first compound 0.316 µM
[30] = second compound 10 µM, first compound 1 µM
[31] = second compound 0.0316 µM, first compound 3.16 µM
[32] = second compound 0.0316 µM, first compound 10 µM
[33] = second compound 0.1 µM, first compound 3.16 µM
[34] = second compound 0.1 µM, first compound 10 µM
[35] = second compound 0.316 µM, first compound 3.16 µM
[36] = second compound 0.316 µM, first compound 10 µM
[37] = second compound 1 µM, first compound 3.16 µM
[38] = second compound 1 µM, first compound 10 µM
[39] = second compound 3.16 µM, first compound 3.16 µM
[40] = second compound 3.16 µM, first compound 10 µM
[41] = second compound 10 µM, first compound 3.16 µM
[42] = second compound 10 µM, first compound 10 µM
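Further: viability measured after seven days of drug exposure.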
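Wherever viability, T/C is given: luminescence signal used as surrogate for viable cell amount; 100% = DMSO vehicle control wells.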

IC50 (curve of compound): < 31.6 nM
Compound: CC(=O)O[C@H]1C(=O)[C@@]2(C)[C@H]([C@H](OC(=O)c3ccccc3)[C@]3(O)C[C@H](OC(=O)[C@H](O)[C@@H](NC(=O)c4ccccc4)c4ccccc4)C(C)=C1C3(C)C)[C@]1(OC(C)=O)CO[C@@H]1C[C@@H]2O
viability, T/C (compound 0.0316 µM): 22.5% and 55.4%
viability, T/C (compound 0.1 µM): 10.6% and 32.8%
viability, T/C (compound 0.316 µM): 11.2% and 23.4%
viability, T/C (compound 1 µM): 12.6% and 36.7%
viability, T/C (compound 3.16 µM): 16% and 32.8%
viability, T/C (compound 10 µM): 20.1% and 42.8%

IC50 [1]: > 1000 nM
IC50 [2]: > 1000 nM
IC50 [3]: 85.5 nM
IC50 [4]: < 3.16 nM
IC50 [5]: < 3.16 nM
IC50 [6]: < 3.16 nM
Compound: CCN1CCN(Cc2ccc(Nc3ncc(F)c(-c4cc(F)c5nc(C)n(C(C)C)c5c4)n3)nc2)CC1 + CNC(=O)c1ccc(Nc2nc(OC3CCCC3)c3c(-c4ccc5nc(C)oc5c4)c[nH]c3n2)c(OC)c1
viability, T/C (second compound 0.0316 µM, first compound 0.00316 µM): 103%
viability, T/C (second compound 0.0316 µM, first compound 0.01 µM): 104%
viability, T/C [7]: 79.3%
viability, T/C [8]: 77%
viability, T/C [9]: 65.5%
viability, T/C [10]: 67.1%
viability, T/C (second compound 0.1 µM, first compound 0.00316 µM): 92.9%
viability, T/C (second compound 0.1 µM, first compound 0.01 µM): 88.5%
viability, T/C [11]: 78.8%
viability, T/C [12]: 70.1%
viability, T/C [13]: 70.4%
viability, T/C [14]: 55.7%
viability, T/C (second compound 0.316 µM, first compound 0.00316 µM): 83.6%
viability, T/C (second compound 0.316 µM, first compound 0.01 µM): 77%
viability, T/C [15]: 67.2%
viability, T/C [16]: 46.3%
viability, T/C [17]: 43%
viability, T/C [18]: 44.6%
viability, T/C (second compound 1 µM, first compound 0.00316 µM): 25.2%
viability, T/C (second compound 1 µM, first compound 0.01 µM): 46.9%
viability, T/C [19]: 25.2%
viability, T/C [20]: 22.5%
viability, T/C [21]: 19.4%
viability, T/C [22]: 26.4%
viability, T/C (second compound 3.16 µM, first compound 0.00316 µM): 26.3%
viability, T/C (second compound 3.16 µM, first compound 0.01 µM): 20.9%
viability, T/C [23]: 18.8%
viability, T/C [24]: 15.4%
viability, T/C [25]: 17%
viability, T/C [26]: 17.7%
viability, T/C (second compound 10 µM, first compound 0.00316 µM): 17.4%
viability, T/C (second compound 10 µM, first compound 0.01 µM): 19.6%
viability, T/C [27]: 17.4%
viability, T/C [28]: 14.6%
viability, T/C [29]: 15.1%
viability, T/C [30]: 18.2%

IC50 [1]: 2270 nM
IC50 [2]: 2160 nM
IC50 [3]: 203 nM
IC50 [4]: < 31.6 nM
IC50 [5]: < 31.6 nM
IC50 [6]: < 31.6 nM
Compound: COC1C=CCC(C)C(C)S(=O)(=O)NC(=O)c2ccc3c(c2)N(CC2CCC21)CC1(CCCc2cc(Cl)ccc21)CO3 (stereo not drawn) + CNC(=O)c1ccc(Nc2nc(OC3CCCC3)c3c(-c4ccc5nc(C)oc5c4)c[nH]c3n2)c(OC)c1
viability, T/C [7]: 105%
viability, T/C [8]: 118%
viability, T/C [9]: 101%
viability, T/C [10]: 87.6%
viability, T/C [31]: 34.6%
viability, T/C [32]: 13.6%
viability, T/C [11]: 102%
viability, T/C [12]: 106%
viability, T/C [13]: 101%
viability, T/C [14]: 78.5%
viability, T/C [33]: 35.9%
viability, T/C [34]: 18.9%
viability, T/C [15]: 75.9%
viability, T/C [16]: 74%
viability, T/C [17]: 35%
viability, T/C [18]: 29.7%
viability, T/C [35]: 30%
viability, T/C [36]: 11.9%
viability, T/C [19]: 33%
viability, T/C [20]: 22.6%
viability, T/C [21]: 15.8%
viability, T/C [22]: 13.6%
viability, T/C [37]: 14.9%
viability, T/C [38]: 9.33%
viability, T/C [23]: 20.9%
viability, T/C [24]: 15.9%
viability, T/C [25]: 16.9%
viability, T/C [26]: 11.5%
viability, T/C [39]: 15.3%
viability, T/C [40]: 7.77%
viability, T/C [27]: 18%
viability, T/C [28]: 15.3%
viability, T/C [29]: 16.7%
viability, T/C [30]: 10.5%
viability, T/C [41]: 11.3%
viability, T/C [42]: 11.4%

Compound: COC1C=CCC(C)C(C)S(=O)(=O)NC(=O)c2ccc3c(c2)N(CC2CCC21)CC1(CCCc2cc(Cl)ccc21)CO3 (stereo not drawn) + CN1CCN(c2cc(C(=O)Nc3cc4cc(-c5cnn(C)c5)ccc4cn3)ccn2)CC1
IC50 [1]: 936 nM
IC50 [2]: 191 nM
IC50 [3]: < 31.6 nM
IC50 [4]: < 31.6 nM
IC50 [5]: < 31.6 nM
IC50 [6]: < 31.6 nM
viability, T/C [7]: 77.2%
viability, T/C [8]: 101%
viability, T/C [9]: 68.9%
viability, T/C [10]: 48.4%
viability, T/C [31]: 27.6%
viability, T/C [32]: 14.2%
viability, T/C [11]: 67.5%
viability, T/C [12]: 58.4%
viability, T/C [13]: 43.9%
viability, T/C [14]: 21.8%
viability, T/C [33]: 18%
viability, T/C [34]: 12.6%
viability, T/C [15]: 17.1%
viability, T/C [16]: 12.4%
viability, T/C [17]: 13.3%
viability, T/C [18]: 8.91%
viability, T/C [35]: 9.07%
viability, T/C [36]: 3.48%
viability, T/C [19]: 0.33%
viability, T/C [20]: 3.47%
viability, T/C [21]: 0.21%
viability, T/C [22]: 0.82%
viability, T/C [37]: 2.3%
viability, T/C [38]: 1.79%
viability, T/C [23]: 0.17%
viability, T/C [24]: 0.15%
viability, T/C [25]: 3.67%
viability, T/C [26]: 0.12%
viability, T/C [39]: 0.15%
viability, T/C [40]: 0.59%
viability, T/C [27]: 0.4%
viability, T/C [28]: 0.21%
viability, T/C [29]: 2.52%
viability, T/C [30]: 0.21%
viability, T/C [41]: 0.23%
viability, T/C [42]: 1.62%
